According to patent publication US20020013372A1, “Pharmacophore models for the identification of the CYP2D6 inhibitory potency of selective serotonin reuptake inhibitors” (priority 2000, published 2002):
Where “and” joins values, the source holds several entries; their conditions need not be identical. Equal values may be shown once.

Molecular target: T1, CYP2D6 (Homo sapiens, UniProt P10635)
Assay: In vitro inhibition of CYP2D6, observed Ki (apparent) values from the literature
Conditions: not given
Description: Many SSRI's are known to be inhibitors of cytochrome P450 (CYP), including CYP2D6 mediated metabolic pathways in vivo and in vitro (Belpair et al., Eur. J Clin. Pharmacol., 54: 261-264, 1998; Crewe et al., Br. J. Clin. Pharmacol., 34: 262-265, 1992; Otton et al, Clin. Pharmacol. Ther., 53: 401-409, 1993; Skjelbo et al., Br. J. Clin. Pharmacol., 34: 256-261, 1992; Stevens et al., J. Pharmacol. Exp. Ther., 266: 964-971, 1993). […] As CYP2D6 is of major concern because of its polymorphic nature (Brosen, Ther. Drug Monitoring, 18: 393-396, 1996), the ability to predict whether a drug will interact with this CYP represents a serious advance in the pharmaceutical arts. The potential for CYP2D6 inhibition in vivo can be predicted reliably using systems such as human liver microsomes and recombinant enzymes, along with a know substrate probe for CYP2D6. By generating a K1 (apparent) value and knowledge of the plasma concentration of the drug, it is possible to reliably predict the likelihood of drug-drug interactions in vivo (Ring et al., J. Pharmacol. Exp. Ther., 275: 1131-1135, 1995).
Present technologies have centered around the use of in vitro testing using human liver microsomes or recombinant CYPs and a known catalytic probe for CYP2D6 such as bufuralol. However, the possible volume of in vitro studies is often limited by equipment and materials cost, incubation volume and the rate of analytical determination. […] Generating this in vitro parameter appears to be dependent on the substrate probe used as well as other experimental variables.

T1 sequence (P10635 whole entry): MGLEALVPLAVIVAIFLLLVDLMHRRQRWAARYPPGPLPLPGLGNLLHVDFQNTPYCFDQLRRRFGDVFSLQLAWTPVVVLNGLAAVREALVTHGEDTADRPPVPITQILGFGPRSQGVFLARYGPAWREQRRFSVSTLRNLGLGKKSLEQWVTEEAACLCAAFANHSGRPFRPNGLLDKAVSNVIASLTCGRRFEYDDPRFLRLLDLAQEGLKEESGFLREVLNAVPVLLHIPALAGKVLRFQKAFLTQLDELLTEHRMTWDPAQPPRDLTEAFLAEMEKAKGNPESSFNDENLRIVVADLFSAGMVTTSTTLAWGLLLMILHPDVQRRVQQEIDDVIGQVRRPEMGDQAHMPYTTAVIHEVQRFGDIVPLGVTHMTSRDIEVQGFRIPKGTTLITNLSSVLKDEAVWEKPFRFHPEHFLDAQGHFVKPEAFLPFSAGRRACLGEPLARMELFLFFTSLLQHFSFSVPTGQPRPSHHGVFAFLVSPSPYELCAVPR

| Molecule | Ki [µM] |
| --- | --- |
| CN[C@H]1CC[C@@H](c2ccc(Cl)c(Cl)c2)c2ccccc21 [Sertraline] | 6.52 |
| NCCC(Oc1ccc(C(F)(F)F)cc1)c1ccccc1 (stereo not drawn) [Norfluoxetine] | 1.07 |
| CN(C)CCCC1(c2ccc(F)cc2)OCc2cc(C#N)ccc21 (stereo not drawn) [Citalopram] | 10.4 |
| CNCCCC1(c2ccc(F)cc2)OCc2cc(C#N)ccc21 (stereo not drawn) [Desmethylcitalopram] | 3.65 |

Molecular target: T1, CYP2D6
Assay: not given
Conditions: read-out: Observed K1 (apparent); individual literature values, source per footnote b-l of Table I; cited from earlier work

| Molecule | Ki |
| --- | --- |
| N[C@H]1CC[C@@H](c2ccc(Cl)c(Cl)c2)c2ccccc21 [Desmethylsertraline] | 16 µM |
| CN(C)CCCC1(c2ccc(F)cc2)OCc2cc(C#N)ccc21 (stereo not drawn) [Citalopram] | 5.1 µM and 19 µM and 7 µM |
| CNCCCC1(c2ccc(F)cc2)OCc2cc(C#N)ccc21 (stereo not drawn) [Desmethylcitalopram] | 1.3 µM and 6 µM |

Same assay, conditions: read-out: observed K1 (apparent); training set of 14 amphetamine compounds, Wu et al., Biochem. Pharmacol. 53: 1605-1612 (1997); cited from earlier work

| Molecule | Ki [µM] |
| --- | --- |
| CNC(C)Cc1ccc2c(c1)OCO2 (stereo not drawn) [(d,l)-3,4-methylenedioxymethamphetamine] | 0.6 |
| COc1cccc(CC(C)N)c1 (stereo not drawn) [(d,l)-3-methoxyamphetamine] | 17.5 |
| CC(N)Cc1ccc2c(c1)OCO2 (stereo not drawn) [(d,l)-3,4-methylenedioxyamphetamine] | 1.8 |
| C[C@H](N)C(=O)c1ccccc1 [(d,l)-cathinone] | 340 |
| COc1cc(CC(C)N)cc2c1OCO2 (stereo not drawn) [(d,l)-3-methoxy-4,5-methylenedioxyamphetamine] | 2.2 |
| COc1cc2c(cc1CC(C)N)OCO2 (stereo not drawn) [(d,l)-2-methoxy-4,5-methylenedioxyamphetamine] | 0.17 |
| (+)-methamphetamine | 25 |
| CC(N)Cc1ccc(O)cc1 (single isomer, unassigned; (+)) [(+)-4-hydroxyamphetamine] | 195 |
| COc1ccc(CC(C)N)cc1 (stereo not drawn) [(d,l)-4-methoxyamphetamine] | 24 |
| COc1cc(CC(C)N)cc(OC)c1OC (stereo not drawn) [(d,l)-3,4,5-trimethoxyamphetamine] | 128 |
| CC(N)Cc1ccccc1 (single isomer, unassigned; (+)) [(+)-amphetamine] | 26.5 |
| CNC(C)Cc1ccc(O)cc1 (stereo not drawn) [(d,l)-4-hydroxymethamphetamine] | 60 |
| COc1ccccc1CC(C)N (stereo not drawn) [(d,l)-2-methoxyamphetamine] | 11.5 |
| COc1cc(OC)c(CC(C)N)c(OC)c1 (stereo not drawn) [(d,l)-2,4,6-trimethoxyamphetamine] | 33 |
